Assay results as given in patent publication US12636295B2, “Compositions and methods for the treatment of obstructive sleep apnoea (OSA)” (Incannex Healthcare Limited, priority 2020, dated 2026).
Like-named read-outs stand apart in the source and are kept apart here.

How the values were obtained:
subjects with OSA [1] = assay: Published studies on the effect of single agent acetazolamide on AHI, with linear trend line dose-response; type: in vivo, human; details: from linear trend line of published studies
From the text: These studies tested a range of doses across a selection of different patient cohorts.

subjects with OSA [2] = details: cited from earlier work; for Reduction in AHI (%): relative to baseline or placebo
[3] = after ingestion; cited from earlier work
subjects with OSA [4] = assay: Published study (Carley et al. 2018) on the effect of single agent dronabinol on AHI, with trend line dose-response; type: in vivo, human; details: from trend line of published data

Compound: CC(=O)Nc1nnc(S(N)(=O)=O)s1 [Acetazolamide, acetazolamide]
- Predicted AHI reduction (%), single agent (subjects with OSA [1]; acetazolamide 125 mg): 23.4%
- Predicted AHI reduction (%), single agent (subjects with OSA [1]; acetazolamide 250 mg): 27.1%
- Predicted AHI reduction (%), single agent (subjects with OSA [1]; acetazolamide 500 mg): 34.5%
- Acetazolamide AHI (subjects with OSA [2]; 250 mg/day, Chin, 1992, baseline/placebo AHI 38.9): 29.6
- Reduction in AHI (%) (subjects with OSA [2]; 250 mg/day, Chin, 1992): 23.9%
- Acetazolamide AHI (subjects with OSA [2]; 250 mg/day, Tojima, 1988, baseline/placebo AHI 25): 18.1
- Reduction in AHI (%) (subjects with OSA [2]; 250 mg/day, Tojima, 1988): 27.6%
- Reduction in AHI (%) (subjects with OSA [2]; 351.2 mg/day, Inoue, 1999): 29.5%
- Acetazolamide AHI (subjects with OSA [2]; 375 mg/day, Inoue, 1987, baseline/placebo AHI 26.9): 17.3
- Reduction in AHI (%) (subjects with OSA [2]; 375 mg/day, Inoue, 1987): 35.7%
- Acetazolamide AHI (subjects with OSA [2]; 750 mg/day, Eskandari, 2018, baseline/placebo AHI 38): 23
- Reduction in AHI (%) (subjects with OSA [2]; 750 mg/day, Eskandari, 2018): 39.5%
- Acetazolamide AHI (subjects with OSA [2]; 1000 mg/day, Edwards, 2012, baseline/placebo AHI 49.6): 24
- Reduction in AHI (%) (subjects with OSA [2]; 1000 mg/day, Edwards, 2012): 51.6%
- Acetazolamide AHI (subjects with OSA [2]; 1000 mg/day, Whyte, 1988, baseline/placebo AHI 50): 26
- Reduction in AHI (%) (subjects with OSA [2]; 1000 mg/day, Whyte, 1988): 48%
- Time to mean peak plasma concentrations [3]: about 2 hours

Compound: CCCCCc1cc(O)c2c(c1)OC(C)(C)C1CCC(C)=CC21 (stereo not drawn) [Dronabinol]
- Predicted AHI reduction (%), single agent (subjects with OSA [4]; dronabinol 2.5 mg/day): 23.4%
- Predicted AHI reduction (%), single agent (subjects with OSA [4]; dronabinol 5 mg/day): 26.5%
- Time to peak effects [3]: 2 to 4 h
- Time to significant concentrations in plasma/blood [3]: 30 to 60 min
